The values that follow come from US20250353825A1, “CANNABICYCLOL DERIVATIVES AND PREPARATION METHODS THEREOF” (priority 2023, published 2025).

Values after ≈ are worked out from the molar mass of the structure shown.

What all share (format): cell-based
For one data set, the system named is SMMC7721-CSC. The data set can be described thus: MTS cell viability assay, SMMC7721-CSC. Particulars: Table 6, tumor stem cell, 72 hours; read-out: IC50 against SMMC7721-CSC. Here is the method: (§1) Primary viability screening: (1) the synthesized compounds 3a to 13d were respectively dissolved in DMSO to prepare a 40 μg/mL cannabicyclol and cannabicyclol derivative solutions.
(§2) (2) A control group: a 200 μL DMSO solvent.
(§3) (3) The solutions of compounds 3a to 13d were diluted in a twofold gradient to obtain cannabicyclol and cannabicyclol derivative solutions at concentrations of 40 μg/mL, 20 μg/mL, 10 μg/mL, 5 μg/mL, 2.5 μg/mL, 1.25 μg/mL, and 0.625 μg/mL, and 0.3125 μg/mL, respectively.
(§4) (4) Three glioblastoma stem cells (GSC-3, GSC-12, and GSC-18), three pancreatic cancer cell-derived stem cells (PANC-1-CSC, BXPC-3-CSC, and ASPC1-CSC), three liver cancer cell-derived stem cells (HepG2-CSC, MHCC97H-CSC, and SMMC7721-CSC), HEK-293T cells, 16 tumor cells (U251, U87, T98G, PANC1, BXPC3, ASPC1, HepG2, MHCC97H, SMMC7721, PC3, SKOV3, MDA-MB231, A549, HCT116, HEC-1B, MKN28), and differentiated glioblastoma stem cells (GSC-3diff and GSC-12diff) derived from GSC-3 and GSC-12 (all of the cells were provided by the Laboratory of Tumor Animal Model Preparation and Application Research, West China Hospital, Sichuan University) were inoculated into a 96-well plate at a concentration of 2×10^4 cells/well, and 100 μL of culture medium was then added to each well; […]
(§5) (10) The absorbance value at 490 nm was measured on an enzyme labeling apparatus, and the IC50 value was calculated.
On the technique in general: Tetrazolium dyes change colour on reduction, which living cells bring about.

The subject of another data set is ASPC1-CSC. Nature of the data set: MTS cell viability assay, ASPC1-CSC. As to conditions: Table 6, tumor stem cell, 72 hours; read-out: IC50 against ASPC1-CSC. The protocol: as §1, §2, §3, §4, §5
The next data set relates to HCT116. Nature of the data set: MTS cell viability assay, HCT116. Particulars: Homo sapiens, HCT-116; Table 7, 72 hours; read-out: IC50 against HCT116. Here is the method:
as §1, §2, §3, §4, §5

Data set [1] is described as follows: MTS cell viability assay, HEK-293T (293T) normal cells. As to conditions: human; primary viability screening, 72 hours, MTS; test concentration not stated; read-out: Cell viability in 293T (%). In a few lines: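 Viability was measured by MTS (2 h, A490) after cells had been treated for 72 h at 37° C with compound concentrations of 40 to 0.3125 μg/mL in triplicate, with a DMSO control; IC50 was calculated from these readings.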

Another data set deals with GSC-12diff. Nature of the data set: MTS cell viability assay, differentiated glioblastoma stem cells GSC-12diff. As to conditions: Table 7, 72 hours, read-out: IC50 against GSC-12diff. Here is the method: as §1, §2, §3, §4, §5
Data set [2] deals with 9 types of cancer stem cells. The data set can be described thus: MTS cell viability assay, summary over 9 types of cancer stem cells. Particulars: FIG. 3, CBL solution at different concentrations. The protocol: as §1, §2, §3, §4, §5
Another data set relates to U251. The data set can be described thus: MTS cell viability assay, U251. Here is the method:
as §1, §2, §3
(4) Three glioblastoma stem cells (GSC-3, GSC-12, and GSC-18), three pancreatic cancer cell-derived stem cells (PANC-1-CSC, BXPC-3-CSC, and ASPC1-CSC), three liver cancer cell-derived stem cells (HepG2-CSC, MHCC97H-CSC, and SMMC7721-CSC), HEK-293T cells, 16 tumor cells (U251, U87, T98G, PANC1, BXPC3, ASPC1, HepG2, MHCC97H, SMMC7721, PC3, SKOV3, MDA-MB231, A549, HCT116, HEC-1B, MKN28), and differentiated glioblastoma stem cells (GSC-3diff and GSC-12diff) derived from GSC-3 and GSC-12 (all of the cells were provided by the Laboratory of Tumor Animal Model Preparation and Application Research, West China Hospital, Sichuan University) were inoculated into a 96-well plate at a concentration of 2×10^4 cells/well, and 100 μL of culture medium was then added to each well;
(5) 2) HEK-293T, GSC-3diff, GSC-12diff, and the 16 tumor cells were added with DMEM, 10% FBS, and 1% double antibody culture medium. Cancer stem cells (CSCs) were added with serum-free stem cell medium consisting of DMEM/F12, EGF (20 ng/mL), bFGF (20 ng/mL), B27 (1×), and 1% double antibody culture medium.
(6) Inoculated cells were put into a cell culture incubator for 24 hours, and after the cells were well adhered to the wall, the culture medium in the 96-well plate was discarded.
(7) 200 μL cannabicyclol and cannabicyclol derivatives solutions at different concentrations were added to the cultured cells.
(8) The experiment was set up with 3 replicates.
(9) The 96-well plate was placed in a cell culture incubator, and incubation was continued at 37° C. and 5% CO2 for 72 hours. Then, 100 μL of cannabicyclol and cannabicyclol derivative solution per well was discarded (100 μL of DMSO solvent was discarded for the control group), and 20 μL of LMTS (CellTiter AQueous Non-Radioactive Cell Proliferation Assay, #G3581) was mixed and continued to be placed in the cell incubator for 2 hours of incubation.
as §5

The test system of a further data set is GSC-3. The data set can be described thus: Soft agar colony (clone) formation, GSC-3. As to conditions: crystal violet, FIG. 4, compound 3a 0, 5 and 5 [sic] μg/mL. Here is the method:
[…] of low-melting-point agarose was dissolved in 12.5 mL of ddH2O to prepare a 3.2% low-melting-point agarose gel. The low-melting-point agarose gel was sterilized by autoclaving at 121° C. and 0.12 MPa for 20 minutes. After sterilization, the low-melting-point agarose gel was maintained at 60° C. in a drying oven for further use.
1.75 mL of 3.2% sterile low-melting-point agarose gel was taken, 5.25 mL of the corresponding complete medium was added, and the two were mixed thoroughly using a pipette to prepare a base gel at a concentration of 0.8%.
1 mL of the base gel was added to each well of a 6-well plate, ensuring that the base gel evenly covered the bottom of each well. The plate was placed at 4° C. for 5 minutes to allow the gel to solidify. After the gel had fully solidified, the plate was warmed at 37° C. for 5 minutes.
6 cells/cell lines (U251, SMMC7721, GSC-3, GSC-12, SMMC7721-CSC, and HepG2-CSC) were individually digested with 1× trypsin for 3 minutes. The corresponding complete culture medium (same as in the application example 1) was added to terminate the digestion. Cells were centrifuged at 1000 rpm for 3 minutes, and the cells were collected and counted. A total of 5×10^3 cells were added to each well, each group was set up with three replicates. […]

A further data set has as its system MKN28. The data set can be described thus: MTS cell viability assay, MKN28. As to conditions: Homo sapiens, MKN-28; Table 7, 72 hours; read-out: IC50 against MKN28. Here is the method: as §1, §2, §3, §4, §5

`CCCCCc1cc(O)c2c(c1)OC1(C)CCC3C1C2C3(C)C` (stereo not shown) [Compound 3a, cannabicyclol]: the half-inhibitory concentration (IC50) in the data set on SMMC7721-CSC is 3.85 µg/mL (≈ 12.2 µM); in the data set on ASPC1-CSC it was 14.6 µg/mL (≈ 46.3 µM); in the data set with HCT116, greater than 40 µg/mL; in the data set with GSC-12diff, 29.6 µg/mL (≈ 94.3 µM); in the data set on U251 (Homo sapiens, U-251, 72 h, read-out: IC50 against U251), greater than 40 µg/mL; with MKN28, greater than 40 µg/mL. Besides, the viability at 72 h in data set [1] came to 82%. In data set [2], the “cell viability of 9 types of cancer stem cells at different concentrations” value is on record as “decreased with increasing concentrations”. Further, the “Cell viability in U251 (%)” value in the data set with U251 (primary viability screening, 72 hours, MTS, test concentration not stated) is given as 54%. Besides, the “colony formation of GSC-3” value with GSC-3 is given as “significantly inhibited”.

For orientation: IC50 means the concentration needed to halve the response being measured. A word on the viability: it is a per cent measure of how many cells are alive, often set against a control.
